{"source": "patent US9295247B2", "about": "“Method of using insect bait station” (ECOLAB USA INC., priority 2008, dated 2016)", "key": {"bed bugs [1]": {"tested_on": "bed bugs", "experiment": "Example 2: bed bug mortality after exposure to solutions of minimum risk (25(b)) pesticides via artificial membrane feeding system", "type": "in vivo", "settings": "for efficacy against bed bugs: exposed to lower concentrations of the solutions; for level of efficacy against bed bugs relative to the other solutions: within 120 hours of exposure", "protocol": "To determine whether consumption of ingredients listed under section 25(b) of the Federal Insecticide, Fungicide, and Rodenticide Act kills bed bugs, several mixtures of salt, citric acid, potassium sorbate, sodium lauryl sulfate (SLS), castor oil, sesame oil, cinnamon oil, garlic oil, citronella oil, lemongrass oil, peppermint oil, cedar oil, clove oil, rosemary oil, thyme oil, geranium oil, geraniol, and flaxseed oil were made. Oil based solutions were dissolved into 2% sodium lauryl sulfate (“SLS”) and water mixtures. Remaining ingredients were dissolved in water. Concentrations of 1%, 5%, and 50% of each solution were made. Control solutions consisted of either human blood or water depending on the test solutions in each experiment. Groups of twenty bed bugs were offered each solution via the artificial membrane feeding system described above for 60 minutes. […] Post-exposure mortality was recorded at 24 hours and 120 hours after exposure to the active solution."}, "bed bugs [2]": {"tested_on": "bed bugs", "experiment": "Example 1: post-consumption mortality of bed bugs fed on solutions via artificial membrane feeding system", "type": "in vivo", "settings": "solution of 0.05 grams boric acid and 4.95 milliliters phosphate buffer pH 7.4; within 24 hours", "text": "Boric acid is an insecticidal dust that causes death upon consumption by most insects with chewing mouthparts. Bed bugs have blood-feeding, piercing/sucking mouthparts that limit their ability to pick up and consume the insecticidal dust in its powder form. To determine whether consumption of boric acid kills bed bugs, several mixtures of boric acid and phosphate buffer, DUPONT™ ADVION™ fire ant bait including indoxacarb and phosphate buffer, and just phosphate buffer solutions were made. […] Multiple groups of ten bed bugs fed on the solutions via artificial membrane feeding systems as described above, and post-consumption mortality was recorded. […]"}, "bed bugs [3]": {"tested_on": "bed bugs", "procedure": "For the following Examples an artificial membrane feeding station was prepared and used. […] The Parafilm™ was stretched to <5.0 mils thick. The liquid bait identified in the various Examples below was placed in the sealed container.\nEach solution was offered to groups of 20 bed bugs via the artificial feeding stations described above. After approximately 60 minutes, the containers of 20 bed bugs were removed from the feeding station and the number that fed to completion was recorded. Post-exposure mortality was recorded at 4 hours, 24 hours and/or 48 hours after exposure to the active solution."}, "bed bugs [4]": {"tested_on": "bed bugs", "experiment": "Example 3: feeding and mortality of bed bugs offered varying concentrations of sodium chloride in water", "type": "in vivo", "text": "To determine optimum concentrations of sodium chloride solutions (for both feeding and mortality), bed bugs were offered the following concentrations sodium chloride diluted in water on a weight percent basis: 0, 0.05, 0.25, 0.5%, 1%, 2%, 3%, 4%, 5%, 6%, 7%, 8%, 9%, 10%, 12%, 14%, 16%, 18%, 20%, 25%, 30%, 35%, 40%, 50%, 60%, 70%, 80%, 90%, and 100%."}}, "data": [{"smiles": "CCCCCCCCCCCCOS(=O)(=O)[O-].[Na+]", "note": "[SLS, sodium lauryl sulfate]", "values": [{"measurement": "efficacy against bed bugs", "setting": "bed bugs [1]", "result": "some efficacy"}, {"measurement": "level of efficacy against bed bugs relative to the other solutions", "setting": "bed bugs [1]", "result": "highest observed levels of efficacy"}]}, {"smiles": "OB(O)O", "note": "[boric acid]", "values": [{"measurement": "efficacy on bed bugs that consumed the solution", "setting": "bed bugs [2]", "result": 100, "unit": "%"}, {"measurement": "increase in mortality", "setting": "bed bugs [3]; 5% boric acid added to the sodium chloride solution", "result": "25-60%"}, {"measurement": "effect on mortality compared to sodium chloride base solutions without boric acid", "setting": "bed bugs [3]; addition of 5% boric acid", "result": "significantly enhanced mortality"}]}, {"smiles": "O=C(O)CC(O)(CC(=O)O)C(=O)O", "note": "[citric acid]", "values": [{"measurement": "efficacy against bed bugs", "setting": "bed bugs [1]", "result": "some efficacy"}, {"measurement": "level of efficacy against bed bugs relative to the other solutions", "setting": "bed bugs [1]", "result": "highest observed levels of efficacy"}]}, {"smiles": "CC(C)=CCC/C(C)=C/CO", "note": "[geraniol oil, geraniol]", "values": [{"measurement": "efficacy against bed bugs", "setting": "bed bugs [1]", "result": "some efficacy"}]}, {"smiles": "C/C=C/C=C/C(=O)[O-].[K+]", "note": "[potassium sorbate]", "values": [{"measurement": "efficacy", "setting": "bed bugs [1]; within 120 hours, bed bugs that consumed the solutions, concentrations of 1%, 5%, 50% made", "result": 0, "unit": "%"}]}, {"smiles": "[Cl-].[Na+]", "note": "[sodium chloride]", "values": [{"measurement": "efficacy against bed bugs", "setting": "bed bugs [1]", "result": "some efficacy"}, {"measurement": "level of efficacy against bed bugs relative to the other solutions", "setting": "bed bugs [1]", "result": "highest observed levels of efficacy"}, {"measurement": "mortality", "setting": "bed bugs [4]; all sodium chloride solutions up to 70% wt. sodium chloride", "result": "some level of mortality"}, {"measurement": "sodium chloride concentration up to which death was recorded", "setting": "bed bugs [4]; just from bed bugs tasting the solutions", "result": "up to 70 weight percent"}, {"measurement": "sodium chloride concentration up to which bed bugs feed to completion or engorge", "setting": "bed bugs [4]; sodium chloride in water, offered about 60 minutes", "result": "up to 5%"}, {"measurement": "highest levels of mortality", "setting": "bed bugs [4]; solutions containing 6-12% wt. sodium chloride, within 48 hours", "result": "up to 70%"}, {"measurement": "sodium chloride concentration up to which bed bugs fully engorge themselves", "setting": "bed bugs [4]; solutions of sodium chloride and water", "result": "up to 5 weight percent"}]}]}
